In patent publication EP0158075A1, “Immuno stimulating composition” (BAYER AG, priority 1984, dated 1985):

Tests used:
Salmonella typhimurium [1] = assay: Survival of mice after intraperitoneal infection with Salmonella typhimurium (Beispiel B); assay type: in vivo, Mäuse; details: 10 mg/kg per os once daily on 4 consecutive days, starting 1 day after i.p. infection with 7 x 10^5 colony-forming units
Excerpt: Substanzen, die die körpereigene Abwehr (Immunsystem) während einer Infektion stimulieren, sind sowohl für die Human- wie für die Veterinärmedizin von großem Interesse, da viele Infektionen trotz guter chemotherapeutischer Möglichkeiten ohne Unterstützung durch körpereigene Abwehrmechanismen persistieren. Dies kann zum erneuten Auftreten von Symptomen (Rezidiv) nach dem überstehen der Ersterkrankung und damit zu chronisch rezidivierenden Krankheiten führen. Unter den durch Bakterien bedingten Erkrankungen sind es besonders Infektionen mit sogenannten fakultativ intrazellulären Bakterien, die Probleme darstellen. Darunter versteht man Bakterien, die sich nach Aufnahme in die Makrophagen (Phagozytose) weiter vermehren. Es bedarf erst einer weiteren Stimulierung der Makrophagen über das Immunsystem, um diese intrazellulären Bakterien abzutöten. Ein Experimentalmodell für eine solche Erkrankung stellt die Infektion der Maus mit Salmonella typhimurium dar. Nach Inokulation der Mäuse mit diesem humanpathogenen Bakterium kommt es in Abhängigkeit von der Infektionsdosis zu einem subakut bis chronischen Krankheitsverlauf, bei dem die Tiere erst nach 4 bis 7 Tagen abzusterben beginnen. Während dieses Zeitraumes besteht die Möglichkeit, das Immunsystem durch Substanzen zu beeinflussen. Bei den meisten anderen tierexperimentellen Infektionen, kommt es zu einem sehr schnellen Absterben der Tiere innerhalb von 1 bis 2 Tagen. Damit besteht keine Möglichkeit mehr, die Abwehr während der Infektion zu stimulieren. 1-[3-Methyl-4-(4'-trifluormethylthio-phenoxy)-phenyl]-3-methyl-1,3,5-triazin-trion wurde Mäusen an 4 aufeinanderfolgenden Tagen einmal täglich per os in unterschiedlichen Dosen verabfolgt, beginnend 1 Tag nach intraperitonealer Infektion mit 7 x 10^5 Kolonien-bildenden Einheiten von Salmonella typhimurium. Diese Infektionsdosis führt bei unbehandelten Tieren innerhalb von 4 bis 6 Tagen zu einem Absterben von 70 bis 90 % der Tiere. […]

Salmonella typhimurium [2] = assay: In vitro direct effect on growth of Salmonella typhimurium; assay type: cell-based

SMILES: Cc1cc(-n2c(=O)[nH]c(=O)n(C)c2=O)ccc1Oc1ccc(SC(F)(F)F)cc1 [1-[3-Methyl-4-(4'-trifluormethylthio-phenoxy)-phenyl]-3-methyl-1,3,5-triazin-2,4,6-(1H, 3H, 5H)-trion]
- Überlebende Mäuse (%) an folgenden Tagen nach Infektion: 6. Tag (Salmonella typhimurium [1]; day 6 after infection): 90%
- Überlebende Mäuse (%) an folgenden Tagen nach Infektion: 12. Tag (Salmonella typhimurium [1]; day 12 after infection): 60%
- Überlebende Mäuse (%) an folgenden Tagen nach Infektion: 18. Tag (Salmonella typhimurium [1]; day 18 after infection): 60%
- direkter Effekt auf die Vermehrung von Salmonella typhimurium (Salmonella typhimurium [2]): keinen direkten Effekt
